Test system: 252836-082-R-J2-PDC tumor spheroids, viability
Assay: Anticancer human tumor 252836-082-R-J2-PDC patient-derived head and neck squamous cell carcinoma cell line growth inhibition [PI3K]
Details: spheroids with HUVEC and MSC; for IC50: curve of first compound; for viability, T/C: stronger effect = lower value
Method in brief: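 Targeted small molecules plus PI3K inhibitors, half-log dose series from Cmax (default top 10 microM), were applied to heterotypic spheroids of cancer cells with HUVEC and MSCs. Viability indicated growth inhibition.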
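Further: spheroids exposed to agents for seven days before readout.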
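Wherever viability, T/C is given: percent of vehicle DMSO control viability so 100% = untreated growth.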

- IC50 (second compound 0.0316 µM): > 100 nM
- IC50 (second compound 0.1 µM): > 100 nM
- IC50 (second compound 0.316 µM): > 100 nM
- IC50 (second compound 1 µM): > 100 nM
- IC50 (second compound 3.16 µM): < 0.316 nM
- IC50 (second compound 10 µM): < 0.316 nM
Structure (SMILES): CC(=O)c1c(C)c2cnc(Nc3ccc(N4CCNCC4)cn3)nc2n(C2CCCC2)c1=O + Cc1nc(NC(=O)N2CCCC2C(N)=O)sc1-c1ccnc(C(C)(C)C(F)(F)F)c1
- viability, T/C (second compound 0.0316 µM, first compound 0.000316 µM): 95.6%
- viability, T/C (second compound 0.0316 µM, first compound 0.001 µM): 83.4%
- viability, T/C (second compound 0.0316 µM, first compound 0.00316 µM): 91.6%
- viability, T/C (second compound 0.0316 µM, first compound 0.01 µM): 79.5%
- viability, T/C (second compound 0.0316 µM, first compound 0.0316 µM): 91.8%
- viability, T/C (second compound 0.0316 µM, first compound 0.1 µM): 77.7%
- viability, T/C (second compound 0.1 µM, first compound 0.000316 µM): 71.9%
- viability, T/C (second compound 0.1 µM, first compound 0.001 µM): 83.8%
- viability, T/C (second compound 0.1 µM, first compound 0.00316 µM): 85.7%
- viability, T/C (second compound 0.1 µM, first compound 0.01 µM): 76.2%
- viability, T/C (second compound 0.1 µM, first compound 0.0316 µM): 78.9%
- viability, T/C (second compound 0.1 µM, first compound 0.1 µM): 73.7%
- viability, T/C (second compound 0.316 µM, first compound 0.000316 µM): 71.7%
- viability, T/C (second compound 0.316 µM, first compound 0.001 µM): 74.2%
- viability, T/C (second compound 0.316 µM, first compound 0.00316 µM): 80.5%
- viability, T/C (second compound 0.316 µM, first compound 0.01 µM): 65.2%
- viability, T/C (second compound 0.316 µM, first compound 0.0316 µM): 66.7%
- viability, T/C (second compound 0.316 µM, first compound 0.1 µM): 81.5%
- viability, T/C (second compound 1 µM, first compound 0.000316 µM): 62.3%
- viability, T/C (second compound 1 µM, first compound 0.001 µM): 56.3%
- viability, T/C (second compound 1 µM, first compound 0.00316 µM): 52.7%
- viability, T/C (second compound 1 µM, first compound 0.01 µM): 65.6%
- viability, T/C (second compound 1 µM, first compound 0.0316 µM): 64.4%
- viability, T/C (second compound 1 µM, first compound 0.1 µM): 57.2%
- viability, T/C (second compound 3.16 µM, first compound 0.000316 µM): 46.1%
- viability, T/C (second compound 3.16 µM, first compound 0.001 µM): 45.5%
- viability, T/C (second compound 3.16 µM, first compound 0.00316 µM): 39.2%
- viability, T/C (second compound 3.16 µM, first compound 0.01 µM): 43.9%
- viability, T/C (second compound 3.16 µM, first compound 0.0316 µM): 48.1%
- viability, T/C (second compound 3.16 µM, first compound 0.1 µM): 41.1%
- viability, T/C (second compound 10 µM, first compound 0.000316 µM): 27.9%
- viability, T/C (second compound 10 µM, first compound 0.001 µM): 30.6%
- viability, T/C (second compound 10 µM, first compound 0.00316 µM): 25.9%
- viability, T/C (second compound 10 µM, first compound 0.01 µM): 35.7%
- viability, T/C (second compound 10 µM, first compound 0.0316 µM): 33.3%
- viability, T/C (second compound 10 µM, first compound 0.1 µM): 38.2%

Reference: PubChem BioAssay AID1963985 (Molecular Pharmacology Branch, DTP, NCI, 2024)
